From patent publication US20250381190A1, “THERAPEUTIC COMBINATIONS OF CAPIVASERTIB AND VENETOCLAX” (AstraZeneca AB, priority 2022, published 2025)

Key:
[1] = tested on: SUDHL4 human GCB-DLBCL tumor cells; assay: SUDHL4 xenograft efficacy (tumor volume, TGI, regression); format: in vivo, female CB.17 SCID mice; details: Study 1
Method: (§1) For the experiments described below, SUDHL4 human GCB-DLBCL tumor cells (10×10^6/mouse) were implanted subcutaneously into female CB.17 SCID mice. Mice were randomized into groups of 5 for efficacy and tolerability assessments based on tumor volume and treated with either vehicles (10% DMSO/25% Kleptose pH=5 (Vehicle 1) and 10% ethanol/30% PEG 400/60% Phosal PG-50 (Vehicle 2)), 130 mg/kg or 45 mg/kg capivasertib, 100 mg/kg venetoclax or the combination of capivasertib and venetoclax. Capivasertib was formulated in 10% DMSO/25% Kleptose pH=5 and venetoclax was formulated in 10% ethanol/30% PEG 400/60% Phosal PG-50. All agents were dosed by oral gavage at a 5 ml/kg dose volume according to schedules described, following tumor cell implantation. Tumor length and width was measured by caliper and tumor volume was calculated using the formula (length×width^2)*π/6.

[2] = Tolerability (body weight change) in SUDHL4 tumor-bearing mice; format: in vivo, female CB.17 SCID mice; details: Study 1
Method: as §1

DLBCL cell lines = assay: In vitro activity against DLBCL cell lines; format: cell-based; details: used individually
[3] = venetoclax 100 mg/kg PO QD (continuous) x 22 days
[4] = capivasertib 130 mg/kg PO BID 10/14 4 days on/3 days off x 22 days

Structure (SMILES)	Regression [1, 3]	TGI [1, 3]	TGI ([1]; venetoclax 100 mg/kg PO QD (continuous) x 22 days, listed as venetoclax)	Max avg body weight loss [2, 3]	Activity against DLBCL cell lines (DLBCL cell lines)	Regression [1, 4]	TGI [1, 4]	TGI ([1]; capivasertib 130 mg/kg PO BID 10/14 4 days on/3 days off x 22 days, listed as capivasertib)	Max avg body weight loss [2, 4]
CC1(C)CCC(CN2CCN(c3ccc(C(=O)NS(=O)(=O)c4ccc(NCC5CCOCC5)c([N+](=O)[O-])c4)c(Oc4cnc5[nH]ccc5c4)c3)CC2)=C(c2ccc(Cl)cc2)C1 [Venetoclax, 4-(4-{[2-(4-chlorophenyl)-4,4-dimethylcyclohex-1-en-1-yl]methyl}piperazin-1-yl)-N-({3-nitro-4-[(tetrahydro-2H-pyran-4-ylmethyl)amino]phenyl}sulfonyl)-2-(1H-pyrrolo[2,3-b]pyridin-5-yloxy)benzamide]	0%	42%	42%	2%	have activity	–	–	–	–
NC1(C(=O)N[C@@H](CCO)c2ccc(Cl)cc2)CCN(c2ncnc3[nH]ccc23)CC1 [Capivasertib, (S)-4-amino-N-(1-(4-chlorophenyl)-3-hydroxypropyl)-1-(7H-pyrrolo[2,3-d]pyrimidin-4-yl)piperidine-4-carboxamide]	–	–	–	–	have activity	0%	82%	82%	6%
